The source of these data is US20250289814A1, “COMPOUNDS AS PARP1 INHIBITIORS” (NINGBO NEWBAY TECHNOLOGY DEVELOPMENT CO., LTD., priority 2022, published 2025).

Like-named read-outs stand apart in the source and are kept apart here.

A short description of data set [1]: Caco2 (A-B/B-A) permeability. Type of data set: in vitro ADME. Conditions: human; for efflux ratio at 120 min, 5 μM: Caco-2, pH 7.4, PappB-A/PappA-B, read-out: Caco2 efflux ratio (ER); for Papp A→B at 120 min, 5 μM: Caco-2, pH 7.4, apical-to-basolateral, read-out: Caco2 A-B apparent permeability (Papp); for Papp A→B at 120 min, 5 μM / Papp B→A at 120 min, 5 μM: HBSS pH 7.4, 120 min, 37° C.; for Papp B→A at 120 min, 5 μM: Caco-2, pH 7.4, basolateral-to-apical, read-out: Caco2 B-A apparent permeability (Papp). As for the experimental part:
The apical-to-basolateral (A-B) and basolateral-to-apical (B-A) transport of 5 μM test compounds in HBSS (10 mM HEPES, pH 7.4) was measured across Caco-2 cell monolayers (cells sourced from American Type Culture Collection, Manassas, Virgina). Duplicate incubations were performed at approximately 37° C. for 120 min, with functionality of the test system confirmed using 5 μM propranolol and digoxin as control compounds. Aliquots (50 μL) from both apical and basolateral wells were transferred into two fresh 96-well plates and quenched with acetonitrile solution containing analytical internal standards. Samples were vortexed mixed, centrifuged and a 100 μL aliquot of the resulting supernatant mixed with an equal volume of ultra-pure water prior to analysis by UPLC-MS/MS. The concentrations of test compound and control compounds in the incubation medium of donor and receiver compartments at the beginning and the end of the incubation period were used to calculate the apparent permeability (Papp) from A-B and B-A directions. The efflux ratio (ER) was expressed as PappB-A/PappA-B. The integrity of the cell monolayers after 2 hours incubation was confirmed using the marker reagent Lucifer yellow.

For the next data set, the system named is DLD1-BRCA2−/− cells. Description: Cell proliferation assay in DLD1-BRCA2−/− cell lines (CellTiter-Glo, 7 days). Type of data set: cell-based. As for the experimental part: BRCA2 (−/−) cells cultured in RPMI 1640+10% FBS were harvested and diluted to a density of 1×10^4 cells/mL and 2×10^4 cells/mL, respectively. Cells (40 μL/well) were seeded into 384-well cell culture plates. Plates were covered and incubated at 37° C., 5% CO2 overnight prior to the addition of test compounds or vehicle. The plates were then incubated at 37° C., 5% CO2 for 7 days. On day 8, the plates were removed from incubator and equilibrated at room temperature for 15 minutes. CellTiter-Glo (40 μL, at 1:1 to culture medium) is added into each well and the plates were placed at room temperature for 30 min. Luminescence was measured using an Envision plate reader. The resultant data were analysed as follows; where LC is culture medium without cells:
% inhibition values for different test compound concentrations were calculated and fitted to a four parameter logistic plot in order to determine the IC50 value using XLfit

Consider `CCc1cc2ncc(CN3CC4CC3CN4c3ccc(C(=O)NC)nc3)cc2[nH]c1=O` (stereo not shown) [Compound 37, 5-(5-((7-ethyl-6-oxo-5,6-dihydro-1,5-naphthyridin-3-yl)methyl)-2,5-diazabicyclo [2.2.1]heptan-2-yl)-N-methylpicolinamide], for which, in data set [1], the efflux ratio at 120 min, 5 μM is 18.8; the apparent permeability from apical to basolateral (Papp A→B) at 120 min, 5 μM was found to be 1.61 ×10⁻⁶ cm/s; the Papp B→A at 120 min, 5 μM amounted to 30.2 ×10⁻⁶ cm/s. The IC50 with DLD1-BRCA2−/− cells (Homo sapiens, DLD-1, 168 h) is more than 1000 nM.

`CCc1cc2ncc(CN3CC[C@@H](Cc4ccc(C(=O)NC)nc4)C3)cc2[nH]c1=O` (single isomer, unassigned) [Compound 25, (enantiomer 1 or 2)-5-((1-((7-ethyl-6-oxo-5,6-dihydro-1,5-naphthyridin-3-yl)methyl)pyrrolidin-3-yl)methyl)-N-methylpicolinamide] returned an IC50 with DLD1-BRCA2−/− cells (Homo sapiens, DLD-1, 168 h) of 300 nM.

In the data set with DLD1-BRCA2−/− cells (Homo sapiens, DLD-1, 168 h), `CCc1cc2ncc(CN3CCC[C@@H](Oc4ccc(C(=O)NC)nc4)C3)cc2[nH]c1=O` (single isomer, unassigned) [Compound 32, (enantiomer 1 or 2)-5-((1-((7-ethyl-6-oxo-5,6-dihydro-1,5-naphthyridin-3-yl)methyl)piperidin-3-yl)oxy)-N-methylpicolinamide] gave a concentration for half-maximal inhibition (IC50) of more than 1000 nM.

Take `CCc1cc2ncc(CN3CC4CCC(C3)N4c3ccc(C(=O)NC)nc3)cc2[nH]c1=O` [Compound 39, 5-(3-((7-ethyl-6-oxo-5,6-dihydro-1,5-naphthyridin-3-yl)methyl)-3,8-diazabicyclo [3.2.1]octan-8-yl)-N-methylpicolinamide]: the IC50 with DLD1-BRCA2−/− cells (Homo sapiens, DLD-1, 168 h) is more than 1000 nM.

In the data set on DLD1-BRCA2−/− cells, `CCc1cc2ncc(CN3CCC[C@@H](Oc4ccc(C(=O)NC)nc4)C3)cc2[nH]c1=O` (single isomer, unassigned) [Compound 33, (enantiomer 1 or 2)-5-((1-((7-ethyl-6-oxo-5,6-dihydro-1,5-naphthyridin-3-yl)methyl)piperidin-3-yl)oxy)-N-methylpicolinamide] had an IC50 of more than 1000 nM.

`CCc1cc2ncc(CN3CCCN(c4ccc(C(=O)NC)nc4)CC3)cc2[nH]c1=O` [Compound 34, 5-(4-((7-ethyl-6-oxo-5,6-dihydro-1,5-naphthyridin-3-yl)methyl)-1,4-diazepan-1-yl)-N-methylpicolinamide] yielded an IC50 in the data set with DLD1-BRCA2−/− cells (Homo sapiens, DLD-1, 168 h) of more than 1000 nM.

`CNC(=O)c1ccc(N2CC3CN(Cc4cnc5cc(C)c(=O)[nH]c5c4)CC3C2)cn1` (stereo not shown) [Compound 41, N-methyl-5-(5-((7-methyl-6-oxo-5,6-dihydro-1,5-naphthyridin-3-yl)methyl)hexahydropyrrolo[3,4-c]pyrrol-2(1H)-yl)picolinamide] had a half-maximal inhibitory concentration (IC50) in the data set on DLD1-BRCA2−/− cells (Homo sapiens, DLD-1, 168 h) of more than 1000 nM.

Consider `CCc1cc2ncc(CN3CCC(Oc4ccc(C(=O)NC)nc4)C3)cc2[nH]c1=O` (stereo not shown) [Compound 9, 5-((1-((7-ethyl-6-oxo-5,6-dihydro-1,5-naphthyridin-3-yl)methyl)pyrrolidin-3-yl)oxy)-N-methylpicolinamide], for which, in data set [1], the efflux ratio at 120 min, 5 μM came out at 10.3; the apparent permeability from apical to basolateral (Papp A→B) at 120 min, 5 μM is 3.55 ×10⁻⁶ cm/s; the apparent permeability from basolateral to apical (Papp B→A) at 120 min, 5 μM stood at 36.5 ×10⁻⁶ cm/s. Also, 14.3 nM corresponded to half-maximal inhibition in the data set with DLD1-BRCA2−/− cells (Homo sapiens, DLD-1, 168 h) (IC50).

With `CCc1cc2ncc(CN3CCC(N(C)c4ccc(C(=O)NC)nc4)CC3)cc2[nH]c1=O` [Compound 31, 5-((1-((7-ethyl-6-oxo-5,6-dihydro-1,5-naphthyridin-3-yl)methyl)piperidin-4-yl)(methyl)amino)-N-methylpicolinamide], in data set [1], the efflux ratio at 120 min, 5 μM is 8.81; the Papp A→B at 120 min, 5 μM amounted to 3.5 ×10⁻⁶ cm/s; the apparent permeability from basolateral to apical (Papp B→A) at 120 min, 5 μM was 30.9 ×10⁻⁶ cm/s. The molecule also displayed an IC50 with DLD1-BRCA2−/− cells (Homo sapiens, DLD-1, 168 h) of more than 1000 nM.

Regarding `CCc1cc2cnc(CN3CC[C@@H](Oc4ccc(C(=O)NC)nc4F)C3)cc2[nH]c1=O` [Compound 62, (R)-5-((1-((3-ethyl-2-oxo-1,2-dihydro-1,6-naphthyridin-7-yl)methyl)pyrrolidin-3-yl)oxy)-6-fluoro-N-methylpicolinamide], in data set [1], the efflux ratio at 120 min, 5 μM came out at 12.7; the apical-to-basolateral permeability (Papp A→B) at 120 min, 5 μM turned out to be 2.46 ×10⁻⁶ cm/s; the apparent permeability from basolateral to apical (Papp B→A) at 120 min, 5 μM turned out to be 31.2 ×10⁻⁶ cm/s. The molecule also showed an IC50 with DLD1-BRCA2−/− cells (Homo sapiens, DLD-1, 168 h) of 1.6 nM.

In turn, `CNC(=O)c1ccc(N2CCCN(Cc3cnc4cc(C)c(=O)[nH]c4c3)CC2)cn1` [Compound 35, N-methyl-5-(4-((7-methyl-6-oxo-5,6-dihydro-1,5-naphthyridin-3-yl)methyl)-1,4-diazepan-1-yl) picolinamide] registered a half-inhibitory concentration (IC50) with DLD1-BRCA2−/− cells (Homo sapiens, DLD-1, 168 h) of more than 1000 nM.

For the molecule `CCc1cc2ncc(CN3CC(Oc4ccc(C(=O)NC)nc4)C[C@@H]3C)cc2[nH]c1=O` (single isomer, unassigned) [Compound 22, 5-(((enantiomer 1 or 2, 5S)-1-((7-ethyl-6-oxo-5,6-dihydro-1,5-naphthyridin-3-yl)methyl)-5-methylpyrrolidin-3-yl)oxy)-N-methylpicolinamide], the IC50 with DLD1-BRCA2−/− cells (Homo sapiens, DLD-1, 168 h) is more than 1000 nM.

Molecule `CCc1cc2ncc(CN3CC[C@@H](Cc4ccc(C(=O)NC)nc4)C3)cc2[nH]c1=O` (single isomer, unassigned) [Compound 26, (enantiomer 1 or 2)-5-((1-((7-ethyl-6-oxo-5,6-dihydro-1,5-naphthyridin-3-yl)methyl)pyrrolidin-3-yl)methyl)-N-methylpicolinamide] showed a half-maximal inhibitory concentration (IC50) in the data set with DLD1-BRCA2−/− cells of 192 nM.

Take `CCc1cc2ncc(CN3C4CCC3CN(c3ccc(C(=O)NC)nc3)C4)cc2[nH]c1=O` [Compound 38, 5-(8-((7-ethyl-6-oxo-5,6-dihydro-1,5-naphthyridin-3-yl)methyl)-3,8-diazabicyclo [3.2.1]octan-3-yl)-N-methylpicolinamide]: in the data set on DLD1-BRCA2−/− cells (Homo sapiens, DLD-1, 168 h), the IC50 is more than 1000 nM.

Regarding `CCc1cc2ncc([C@H](C)N3CC[C@@H](Oc4ccc(C(=O)NC)nc4)C3)cc2[nH]c1=O` (single isomer, unassigned) [Compound 12, 5-(((R)-1-((enantiomer 1 or 2)-1-(7-ethyl-6-oxo-5,6-dihydro-1,5-naphthyridin-3-yl)ethyl)pyrrolidin-3-yl)oxy)-N-methylpicolinamide], in data set [1], the efflux ratio at 120 min, 5 μM was 10.3; the apparent permeability from apical to basolateral (Papp A→B) at 120 min, 5 μM turned out to be 3.44 ×10⁻⁶ cm/s; the Papp B→A at 120 min, 5 μM was 35.5 ×10⁻⁶ cm/s. In addition, inhibition with DLD1-BRCA2−/− cells (Homo sapiens, DLD-1, 168 h) was half-maximal at 22.5 nM (IC50).

`CCc1cc2ncc(CN3CC(Oc4ccc(C(=O)NC)nc4)C[C@@H]3C)cc2[nH]c1=O` (single isomer, unassigned) [Compound 23, 5-(((enantiomer 1 or 2, 5S)-1-((7-ethyl-6-oxo-5,6-dihydro-1,5-naphthyridin-3-yl)methyl)-5-methylpyrrolidin-3-yl)oxy)-N-methylpicolinamide]: the IC50 in the data set with DLD1-BRCA2−/− cells is more than 1000 nM.

Take `CCc1cc2ncc(CN3CC(Oc4ccc(C(=O)NC)nc4)C3C)cc2[nH]c1=O` (stereo not shown) [Compound 18, 5-((1-((7-ethyl-6-oxo-5,6-dihydro-1,5-naphthyridin-3-yl)methyl)-2-methylazetidin-3-yl)oxy)-N-methylpicolinamide]: the half-inhibitory concentration (IC50) with DLD1-BRCA2−/− cells (Homo sapiens, DLD-1, 168 h) was more than 1000 nM.

For `CCc1cc2ncc(CN3CC[C@@H](N(C)c4ccc(C(=O)NC)nc4)C3)cc2[nH]c1=O` (single isomer, unassigned; enantiomer 1) [Compound 16, (enantiomer 1)-5-((1-((7-ethyl-6-oxo-5,6-dihydro-1,5-naphthyridin-3-yl)methyl)pyrrolidin-3-yl)(methyl)amino)-N-methylpicolinamide], the IC50 in the data set with DLD1-BRCA2−/− cells is more than 1000 nM.

Molecule `CCc1cc2ncc(CN3C4CC3CN(c3ccc(C(=O)NC)nc3)C4)cc2[nH]c1=O` [Compound 36, 5-(6-((7-ethyl-6-oxo-5,6-dihydro-1,5-naphthyridin-3-yl)methyl)-3,6-diazabicyclo [3.1.1]heptan-3-yl)-N-methylpicolinamide] registered an IC50 in the data set with DLD1-BRCA2−/− cells (Homo sapiens, DLD-1, 168 h) of more than 1000 nM.

Consider `CCc1cc2ncc(CN3CC[C@@H](Oc4cnc(C(=O)NC)c(F)c4)C3)cc2[nH]c1=O` [Compound 27, (R)-5-((1-((7-ethyl-6-oxo-5,6-dihydro-1,5-naphthyridin-3-yl)methyl)pyrrolidin-3-yl)oxy)-3-fluoro-N-methylpicolinamide], for which the midpoint of inhibition in the data set with DLD1-BRCA2−/− cells (Homo sapiens, DLD-1, 168 h), the IC50, lay at 356 nM.

With `CNC(=O)c1ccc(O[C@@H]2CCN(Cc3cnc4cc(C)c(=O)[nH]c4c3)C2)cn1` [Compound 59, (R)-N-methyl-5-((1-((7-methyl-6-oxo-5,6-dihydro-1,5-naphthyridin-3-yl)methyl)pyrrolidin-3-yl)oxy)picolinamide], the half-maximal inhibitory concentration (IC50) in the data set on DLD1-BRCA2−/− cells (Homo sapiens, DLD-1, 168 h) amounted to 215 nM.

As for `CCc1cc2ncc(CN3CC4CCN(c5ccc(C(=O)NC)nc5)C4C3)cc2[nH]c1=O` (stereo not shown) [Compound 42, 5-(5-((7-ethyl-6-oxo-5,6-dihydro-1,5-naphthyridin-3-yl)methyl)hexahydropyrrolo[3,4-b]pyrrol-1(2H)-yl)-N-methylpicolinamide], in data set [1], the efflux ratio at 120 min, 5 μM amounted to 7.71; the apical-to-basolateral permeability (Papp A→B) at 120 min, 5 μM amounted to 4.57 ×10⁻⁶ cm/s; the Papp B→A at 120 min, 5 μM is 35.3 ×10⁻⁶ cm/s. Besides, the 50% inhibitory concentration (IC50) in the data set with DLD1-BRCA2−/− cells (Homo sapiens, DLD-1, 168 h) was more than 1000 nM.
